Data: patent US20200390100A1, “SUBSTITUTED N-HETEROCYCLYL- AND N-HETEROARYL-TETRAHYDROPYRIMIDINONES AND THE SALTS THEREOF, AND THE USE OF SAME AS HERBICIDAL ACTIVE SUBSTANCES” (Bayer Aktiengesellschaft, priority 2017, published 2020)

Experiments:
Experiment in all cases: Herbicidal post-emergence action (Part 2), 1280 g/ha
Assay type in all cases: in vivo
Matricaria inodora = conditions: application rate 1280 g/ha, rated visually after about 3 weeks, Table C6
How it was run: (§1)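 Plants at the one-leaf stage were treated on green parts with wettable powder or emulsion concentrate preparations diluted in water containing 0.5% additive. Effects were judged by eye after about 3 weeks in the greenhouse, relative to untreated plants.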

Stellaria media = conditions: application rate 1280 g/ha, rated visually after about 3 weeks, Table C7
How it was run: as §1

Setaria viridis = conditions: application rate 1280 g/ha, rated visually after about 3 weeks, Table C3
How it was run: as §1

Echinochloa crus-galli = conditions: post-emergence (Part 2), application rate 1280 g/ha, rated visually after about 3 weeks vs untreated controls
How it was run: as §1

Abutilon theophrasti = conditions: application rate 1280 g/ha, rated visually after about 3 weeks, Table C4
How it was run: as §1

Poa annua = conditions: application rate 1280 g/ha, rated visually after about 3 weeks, Table C2
How it was run: as §1

Amaranthus retroflexus = conditions: application rate 1280 g/ha, rated visually after about 3 weeks, Table C5
How it was run: as §1

CC1CC(O)N(c2cc(C(C)(C)C)on2)C(=O)N1C (stereo not shown) [I.41-162, 1-(5-tert-Butyl-1,2-oxazol-3-yl)-6-hydroxy-3,4-dimethyltetrahydropyrimidin-2(1H)-one]
100%: Matricaria inodora (Matricaria inodora) | Stellaria media (Stellaria media) | Setaria viridis (Setaria viridis) | Echinochloa crus-galli (Echinochloa crus-galli) | Abutilon theophrasti (Abutilon theophrasti) | Poa Annua (Poa annua) | Amaranthus retroflexus (Amaranthus retroflexus)
